Experiments:
[1] = Samples for fluorescence polarization affinity measurements were prepared by addition of serial dilutions of […] to each well containing antagonist and polarization probe in the buffer. Samples were read after 30-min incubation. Fluorescence polarization values were plotted as a function of the antagonist concentra; settings: pH 7.2
[2] = biological target: T1, Baculoviral IAP repeat-containing protein 3 [255-322] (Homo sapiens, UniProt Q13489); assay: Fluorescence Polarization Affinity Measurements; settings: pH 7.2; 22 °C
T1 construct: 255-322
T1 sequence (Q13489 255-322): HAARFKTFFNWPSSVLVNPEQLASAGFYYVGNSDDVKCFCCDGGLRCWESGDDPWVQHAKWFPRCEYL
Experimental: (§1) Samples for fluorescence polarization affinity measurements were prepared by addition of serial dilutions of […] to each well containing antagonist and polarization probe in the buffer. Samples were read after 30-min incubation. Fluorescence polarization values were plotted as a function of the antagonist concentration, and the IC50 values were obtained by fitting the data to a four-parameter equation using KaleidaGraph software. Ki values for the antagonists were determined from the IC50 values.

[3] = biological target: T2, Baculoviral IAP repeat-containing protein 2 [269-336] (Homo sapiens, UniProt Q13490); assay: Fluorescence Polarization Affinity Measurements; settings: pH 7.2; 22 °C
T2 construct: 269-336
T2 sequence (Q13490 269-336): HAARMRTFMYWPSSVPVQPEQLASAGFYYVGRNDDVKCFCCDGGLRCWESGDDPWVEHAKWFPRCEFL
Experimental: as §1

| Ki [1] | Ki [2] | Ki [3] | SMILES |
| --- | --- | --- | --- |
| 33 nM | 96 nM | 36 nM | CN[C@@H](C)C(=O)N[C@H](C(=O)N1CCC[C@H]1c1nc2c(-c3ccccc3Cl)nccc2s1)C1CCOCC1 [PS-1] |
| 5050 nM | 114 nM | 37 nM | CN[C@@H](C)C(=O)N[C@H](C(=O)N1CCC[C@H]1C(=O)Nc1ccccc1-c1ncccn1)C1CCCCC1 [CS-2] |
| > 34000 nM | > 34000 nM | > 34000 nM | CN[C@H](C)C(=O)N[C@@H](C(=O)N1CCC[C@@H]1c1nc2c(-c3ccccc3Cl)nccc2s1)C1CCOCC1 [ent-PS-1] |
| 2400 nM | 52 nM | 10 nM | CN[C@@H](C)C(=O)N[C@H](C(=O)N1CC[C@H](C)[C@H]1C(=O)Nc1cc(C)nn1-c1ccccc1)C1CCCCC1 [CS-1] |

Source: BindingDB's records for doi:10.1021/cb900083m (Genentech, 2009)
